Structures are written as SMILES. ≈ marks a conversion by molar mass, not a printed value. Read-outs that look alike come from different tables or passages of the source.

We go through 1 molecule from patent US4565861A, “Serirubicum” (Microbial Chemistry Research Foundation, priority 1983, dated 1986).

The subject of one assay is L1210 leukemia cells. The format is in vivo, CDF1 mice. Particulars: i.p., daily for 10 days. The protocol: CDF1 mice were intraperitoneally implanted with 1×10^5 L1210 leukemia cells/mouse as a suspension. After the implantation, 0.25 ml of a solution containing the test compound was intraperitoneally injected into each mouse, each day, for 10 days, beginning on the day of implantation.
The increase of life span (%) compared with the control group consisting of mice administered with physiological saline solution instead of the test compound solution was calculated from the following equation: [formula]

The test system of assay [1] is DNA synthesis in L1210 cells. The assay can be described thus: Inhibition of DNA synthesis in L1210 cells. The format is cell-based. From the text:
(§1) These findings indicated its therapeutic effect on tumors in experimental animals.

A further assay relates to L1210 cells. The assay can be described thus: Growth inhibition of cultured L1210 cells. The class given is cell-based.
From the text: as §1

A further assay concerns B. cereus ATCC10702. The assay can be described thus: Antimicrobial activity, agar dilution method. The class given is cell-based. From the text: (§2) The antimicrobial activity of serirubicin according to the present invention was examined. It is expressed as minimum inhibitory concentration (MIC) determined by the agar dilution method.
The test system of another assay is B. subtilis PCI219. The assay can be described thus: Antimicrobial activity, agar dilution method. The format is cell-based.
From the text: as §2

The test system of a further assay is Sal. typhi T-63. The assay can be described thus: Antimicrobial activity, agar dilution method. The class given is cell-based.
From the text: as §2

A further assay has as its system S. aureus 209P. The experiment in a line: Antimicrobial activity, agar dilution method. The format is cell-based.
From the text: as §2

A further assay concerns Coryn. bovis 1810. The experiment in a line: Antimicrobial activity, agar dilution method. The class given is cell-based.
From the text: as §2

The test system of a further assay is S. aureus MS9610. The assay can be described thus: Antimicrobial activity, agar dilution method. The format is cell-based.
From the text: as §2

The next assay has as its system S. aureus Smith. The experiment in a line: Antimicrobial activity, agar dilution method. The class given is cell-based.
From the text: as §2

A further assay deals with M. lysodeikticus IF03333. The experiment in a line: Antimicrobial activity, agar dilution method. The format is cell-based.
From the text: as §2

The next assay concerns S. aureus MS8710. The assay can be described thus: Antimicrobial activity, agar dilution method. The class given is cell-based.
From the text: as §2

Assay [2] has as its system Protein synthesis in L1210 cells. The assay can be described thus: Inhibition of protein synthesis in L1210 cells. The class given is cell-based. As to conditions: at 10 μg/ml.
From the text: as §1

In assay [3] the test system is RNA synthesis in L1210 cells. The experiment in a line: Inhibition of RNA synthesis in L1210 cells. The format is cell-based.
From the text: as §1

Regarding `CCC1(O)CC(OC2CC(N(C)C)C(OC3CC4OC5CC(=O)C(C)OC5OC4C(C)O3)C(C)O2)c2cc3c(c(O)c2C1OC1CC(N(C)C)C(OC2CC4OC5CC(=O)C(C)OC5OC4C(C)O2)C(C)O1)C(=O)c1cccc(O)c1C3=O` (stereo not drawn) [serirubicin], the “Increase of life span” value with L1210 leukemia cells (0.031 mg/kg/day) came out at 119%; in the assay on L1210 leukemia cells (0.063 mg/kg/day), 113%; in the assay on L1210 leukemia cells (0.125 mg/kg/day), 137%; in the assay on L1210 leukemia cells (0.25 mg/kg/day), 274%; in the assay with L1210 leukemia cells (0.5 mg/kg/day), 143%; in the assay on L1210 leukemia cells (1.0 mg/kg/day), 149%. For the same molecule, the “ID50 DNA synthesis” value in [1] came out at 0.46 µg/mL (≈ 0.395 µM). In addition, the “ID50 Growth” value in the assay on L1210 cells (L1210 cells) was found to be 0.004 µg/mL (≈ 0.00343 µM). Moreover, in the assay on L1210 cells (cultured L1210 cells), the “Inhibition of growth (in words)” value is “inhibited the growth of cultured L1210 cells at very low concentrations”. For the same molecule, the MIC is 0.78 µg/mL (≈ 0.669 µM) in the assay with B. cereus ATCC10702; 0.78 µg/mL (≈ 0.669 µM) against B. subtilis PCI219; above 3.12 µg/mL against Sal. typhi T-63; 0.78 µg/mL (≈ 0.669 µM) against S. aureus 209P; 0.39 µg/mL (≈ 0.335 µM) in the assay on Coryn. bovis 1810; 0.78 µg/mL (≈ 0.669 µM) against S. aureus MS9610. Further, the MIC against S. aureus Smith came to 1.56 µg/mL (≈ 1.34 µM); against M. lysodeikticus IF03333 it was 0.78 µg/mL (≈ 0.669 µM); against S. aureus MS8710, 0.78 µg/mL (≈ 0.669 µM). Moreover, the Protein synthesis inhibition in assay [2] stood at 32%. Also, the “ID50 RNA synthesis” value in [3] (L1210 cells) is 0.086 µg/mL (≈ 0.0738 µM). Besides, in assay [3] (cultured L1210 cells), the “Inhibition of RNA synthesis (in words)” value was “RNA synthesis was inhibited at particularly low concentration”.
